Assay type in all cases: cell-based, murine
For assay [1], the target named is Ba/F3 EGFR Wild-type (Homo sapiens, UniProt P00533). The assay is described as follows: CellTiter-Glo cell viability, Ba/F3 EGFR wild-type cells. Conditions: 72 hours, read-out: Ba/F3 EGFR mutant cell (IC50, nM) WT. A digest of the protocol: (§1)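 Luminescent ATP read-out (CellTiter-Glo) after 72 h compound exposure, 0–2000 nM dilution series. Cells plated 2500/well, dosed 24 h post-seeding. IC50 from luminescence curves.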
Chain of Ba/F3 EGFR Wild-type (P00533 whole entry, change not shown): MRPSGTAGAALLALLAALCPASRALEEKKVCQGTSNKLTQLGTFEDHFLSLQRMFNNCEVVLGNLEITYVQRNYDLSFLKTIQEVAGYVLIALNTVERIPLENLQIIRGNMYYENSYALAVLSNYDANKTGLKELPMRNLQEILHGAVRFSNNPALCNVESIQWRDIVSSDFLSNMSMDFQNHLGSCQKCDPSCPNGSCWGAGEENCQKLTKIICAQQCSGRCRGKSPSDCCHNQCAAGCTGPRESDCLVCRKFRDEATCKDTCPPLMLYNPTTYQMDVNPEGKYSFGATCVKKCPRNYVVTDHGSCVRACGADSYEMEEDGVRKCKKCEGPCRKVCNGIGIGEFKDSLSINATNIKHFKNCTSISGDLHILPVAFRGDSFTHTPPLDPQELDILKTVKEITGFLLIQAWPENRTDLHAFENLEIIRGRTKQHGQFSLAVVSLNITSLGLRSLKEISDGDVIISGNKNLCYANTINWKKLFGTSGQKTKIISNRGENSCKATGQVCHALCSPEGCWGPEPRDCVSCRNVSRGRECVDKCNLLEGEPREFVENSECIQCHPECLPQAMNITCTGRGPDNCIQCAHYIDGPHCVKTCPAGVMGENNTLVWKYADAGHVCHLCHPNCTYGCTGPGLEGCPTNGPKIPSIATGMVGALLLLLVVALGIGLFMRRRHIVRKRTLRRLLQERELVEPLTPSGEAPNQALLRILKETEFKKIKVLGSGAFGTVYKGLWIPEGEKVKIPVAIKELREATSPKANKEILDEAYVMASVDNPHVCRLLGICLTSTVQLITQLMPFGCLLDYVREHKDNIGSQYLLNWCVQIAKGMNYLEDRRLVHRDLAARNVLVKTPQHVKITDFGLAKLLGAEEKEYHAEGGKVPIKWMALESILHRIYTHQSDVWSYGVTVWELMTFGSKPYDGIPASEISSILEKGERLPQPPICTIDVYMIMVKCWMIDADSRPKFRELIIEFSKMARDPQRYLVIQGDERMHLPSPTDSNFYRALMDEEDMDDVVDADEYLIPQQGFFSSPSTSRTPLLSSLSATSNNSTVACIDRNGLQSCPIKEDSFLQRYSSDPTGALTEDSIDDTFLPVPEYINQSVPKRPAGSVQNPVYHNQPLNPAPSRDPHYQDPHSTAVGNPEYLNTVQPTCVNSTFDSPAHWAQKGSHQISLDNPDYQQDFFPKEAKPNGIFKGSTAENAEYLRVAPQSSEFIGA
(In ATP-based viability assays light output follows the ATP content of the culture.)

Assay [2] has as its target Ba/F3 EGFR L858R/C797S mutants (Homo sapiens, UniProt P00533, C797S/L858R, cells depend on it). The assay is described as follows: CellTiter-Glo cell viability, Ba/F3 EGFR L858R/C797S cells. Conditions: 72 hours, read-out: Ba/F3 EGFR mutant cell (IC50, nM) L/C. In outline: as §1
In assay [3] the target is Ba/F3 EGFR L858R/T790M/C797S mutants (Homo sapiens, UniProt P00533, T790M/C797S/L858R, cells depend on it). As to the kind of experiment: CellTiter-Glo cell viability, Ba/F3 EGFR L858R/T790M/C797S cells. Conditions: 72 hours, read-out: Ba/F3 EGFR mutant cell (IC50, nM) L/T/C. In outline: as §1
Assay [4] addresses Ba/F3 EGFR Del19/T790M mutants (Homo sapiens, UniProt P00533, T790M, cells depend on it, form not given). The assay is described as follows: CellTiter-Glo cell viability, Ba/F3 EGFR Del19/T790M cells. Conditions: 72 hours, read-out: Ba/F3 EGFR mutant cell (IC50, nM) D/T. Here is the method:
In order to evaluate an inhibitory ability on wild-type Ba/F3 EGFR and Ba/F3 EGFR mutations in Ba/F3 cell lines by the compounds of Formula 1, the experiment was carried out as described below.
The measurement of activities on Ba/F3 cells harboring wild-type EGFR and EGFR mutants by the compounds of the present invention were determined utilizing the CELLTITER-GLO™ system from Promega, as follows. The CELLTITER-GLO™ assay is a method for measuring the ATP present in cells to determine the cell viability. Ba/F3 EGFR wild-type and Ba/F3 EGFR L858R/C797S (L/C), Ba/F3 EGFR L858R/T790M/C797S (L/T/C), Ba/F3 EGFR Del19/T790M (D/T), Ba/F3 EGFR Del19/C797S (D/C), Ba/F3 EGFR Del19/T790M/C797S (D/T/C) mutant cell lines were maintained in RPMI1640, containing […], 1% penicillin-streptomycin, […] puromycin. Cells were grown in a humidified incubator at 37° C. with […].
The analysis of an EGFR inhibitory activity by the compounds was carried out in accordance with the analysis reaction recipe below.
2500 cells/90 μL were seeded in 96 well cell culture plate, and after 24 hours, treated with the compounds represented by Formula 1 in concentrations of 0, 0.3, 0.9, 2.7, 8.2, 24.7, 74.1, 222.2, 666.7, 2000 (nM). After the reaction of 72 hours, the plate was incubated for 30 minutes at ambient temperature, and then, was further treated with 100 μL of the CELLTITER-GLO™ reagent and was shaken for 10 minutes at ambient temperature. Finally, measurement of the luminescence values were obtained using the SPECTRAMAX™ iD3 (Molecular Devices), and the IC50 values of the compound were analyzed using the GraphPad Prism program (version 9.0.2, GraphPad Software, Inc.).

Assay [5] concerns the target Ba/F3 EGFR Del19/C797S mutants (Homo sapiens, UniProt P00533, C797S, cells depend on it, form not given). As to the kind of experiment: CellTiter-Glo cell viability, Ba/F3 EGFR Del19/C797S cells. Conditions: 72 hours, read-out: Ba/F3 EGFR mutant cell (IC50, nM) D/C. A digest of the protocol:
as §1

Assay [6] has as its target Ba/F3 EGFR Del19/T790M/C797S mutants (Homo sapiens, UniProt P00533, T790M/C797S, cells depend on it, form not given). As to the kind of experiment: CellTiter-Glo cell viability, Ba/F3 EGFR Del19/T790M/C797S cells. The settings on record: 72 hours, read-out: Ba/F3 EGFR mutant cell (IC50, nM) D/T/C. A digest of the protocol:
as §1

The values that follow come from patent publication US12297194B2, “N2-phenylpyrimidine-2,4-diamine compounds, and preparation methods and methods of use thereof” (BRIDGE BIOTHERAPEUTICS, INC., priority 2021, dated 2025).

Chain of Ba/F3 EGFR L858R/C797S mutants (P00533 whole entry C797S/L858R): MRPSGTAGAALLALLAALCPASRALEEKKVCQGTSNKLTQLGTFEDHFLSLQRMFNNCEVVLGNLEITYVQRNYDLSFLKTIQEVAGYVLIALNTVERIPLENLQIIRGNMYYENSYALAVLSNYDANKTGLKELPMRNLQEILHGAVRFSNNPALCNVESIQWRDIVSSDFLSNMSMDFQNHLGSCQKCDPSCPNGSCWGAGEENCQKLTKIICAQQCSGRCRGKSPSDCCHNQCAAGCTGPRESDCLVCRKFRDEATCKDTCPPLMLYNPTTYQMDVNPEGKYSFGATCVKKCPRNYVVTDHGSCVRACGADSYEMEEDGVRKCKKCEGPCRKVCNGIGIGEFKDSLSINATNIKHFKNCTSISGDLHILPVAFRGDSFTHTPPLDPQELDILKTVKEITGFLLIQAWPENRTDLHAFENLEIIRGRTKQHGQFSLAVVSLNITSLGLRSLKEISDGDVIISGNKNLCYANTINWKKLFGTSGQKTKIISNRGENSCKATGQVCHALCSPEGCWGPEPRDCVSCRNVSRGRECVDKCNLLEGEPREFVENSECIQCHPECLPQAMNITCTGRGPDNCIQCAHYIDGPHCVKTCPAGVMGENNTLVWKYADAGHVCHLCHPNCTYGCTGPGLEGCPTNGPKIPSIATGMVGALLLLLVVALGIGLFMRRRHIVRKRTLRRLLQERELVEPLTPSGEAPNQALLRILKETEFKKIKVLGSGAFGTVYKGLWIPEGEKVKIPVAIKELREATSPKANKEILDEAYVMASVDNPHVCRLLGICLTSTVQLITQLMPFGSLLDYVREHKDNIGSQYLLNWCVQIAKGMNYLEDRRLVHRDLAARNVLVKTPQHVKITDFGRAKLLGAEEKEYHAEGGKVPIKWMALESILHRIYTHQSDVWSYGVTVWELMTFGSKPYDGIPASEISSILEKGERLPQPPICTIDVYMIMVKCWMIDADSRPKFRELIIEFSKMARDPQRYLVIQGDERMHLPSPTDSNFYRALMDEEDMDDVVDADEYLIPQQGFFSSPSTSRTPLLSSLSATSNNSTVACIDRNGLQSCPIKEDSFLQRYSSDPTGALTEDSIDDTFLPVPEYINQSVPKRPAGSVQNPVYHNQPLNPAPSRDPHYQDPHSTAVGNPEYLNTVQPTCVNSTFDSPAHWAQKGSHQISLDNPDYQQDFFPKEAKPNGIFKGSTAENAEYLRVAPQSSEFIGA
Chain of Ba/F3 EGFR Del19/T790M/C797S mutants (P00533 with tags, fused parts or gaps DEL746-750/T790M/C797S, form open): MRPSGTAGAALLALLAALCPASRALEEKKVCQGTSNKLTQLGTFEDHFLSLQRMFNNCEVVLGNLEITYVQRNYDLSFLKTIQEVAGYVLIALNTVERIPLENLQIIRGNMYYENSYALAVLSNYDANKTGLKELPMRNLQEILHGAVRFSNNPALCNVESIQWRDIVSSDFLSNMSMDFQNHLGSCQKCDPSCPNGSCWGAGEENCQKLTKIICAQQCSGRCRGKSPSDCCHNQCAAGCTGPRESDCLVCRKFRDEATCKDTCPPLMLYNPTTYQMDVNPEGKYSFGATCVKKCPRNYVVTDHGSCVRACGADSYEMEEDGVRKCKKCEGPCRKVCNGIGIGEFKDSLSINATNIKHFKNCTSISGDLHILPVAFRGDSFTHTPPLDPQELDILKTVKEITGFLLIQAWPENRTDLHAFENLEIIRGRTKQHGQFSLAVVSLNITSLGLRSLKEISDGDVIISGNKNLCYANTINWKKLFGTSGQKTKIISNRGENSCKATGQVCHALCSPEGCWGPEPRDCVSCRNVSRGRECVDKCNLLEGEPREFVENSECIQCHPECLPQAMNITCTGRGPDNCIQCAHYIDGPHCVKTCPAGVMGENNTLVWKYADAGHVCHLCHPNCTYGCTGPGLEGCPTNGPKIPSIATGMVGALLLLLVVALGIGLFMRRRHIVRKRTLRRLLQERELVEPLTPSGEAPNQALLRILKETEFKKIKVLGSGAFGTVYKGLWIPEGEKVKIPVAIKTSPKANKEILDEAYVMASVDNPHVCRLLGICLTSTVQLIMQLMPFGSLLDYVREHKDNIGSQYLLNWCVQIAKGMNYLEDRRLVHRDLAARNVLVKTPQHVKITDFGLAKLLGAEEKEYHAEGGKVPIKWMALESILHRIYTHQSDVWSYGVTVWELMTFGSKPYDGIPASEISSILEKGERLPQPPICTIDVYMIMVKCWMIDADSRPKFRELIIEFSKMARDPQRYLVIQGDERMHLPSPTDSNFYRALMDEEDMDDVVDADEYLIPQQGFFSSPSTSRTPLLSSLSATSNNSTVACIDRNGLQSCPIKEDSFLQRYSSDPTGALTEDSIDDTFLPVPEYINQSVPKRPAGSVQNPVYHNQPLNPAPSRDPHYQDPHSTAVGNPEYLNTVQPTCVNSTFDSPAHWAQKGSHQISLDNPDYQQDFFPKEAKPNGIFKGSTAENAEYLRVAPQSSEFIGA
Chain of Ba/F3 EGFR Del19/T790M mutants (P00533 with tags, fused parts or gaps DEL746-750/T790M, form open): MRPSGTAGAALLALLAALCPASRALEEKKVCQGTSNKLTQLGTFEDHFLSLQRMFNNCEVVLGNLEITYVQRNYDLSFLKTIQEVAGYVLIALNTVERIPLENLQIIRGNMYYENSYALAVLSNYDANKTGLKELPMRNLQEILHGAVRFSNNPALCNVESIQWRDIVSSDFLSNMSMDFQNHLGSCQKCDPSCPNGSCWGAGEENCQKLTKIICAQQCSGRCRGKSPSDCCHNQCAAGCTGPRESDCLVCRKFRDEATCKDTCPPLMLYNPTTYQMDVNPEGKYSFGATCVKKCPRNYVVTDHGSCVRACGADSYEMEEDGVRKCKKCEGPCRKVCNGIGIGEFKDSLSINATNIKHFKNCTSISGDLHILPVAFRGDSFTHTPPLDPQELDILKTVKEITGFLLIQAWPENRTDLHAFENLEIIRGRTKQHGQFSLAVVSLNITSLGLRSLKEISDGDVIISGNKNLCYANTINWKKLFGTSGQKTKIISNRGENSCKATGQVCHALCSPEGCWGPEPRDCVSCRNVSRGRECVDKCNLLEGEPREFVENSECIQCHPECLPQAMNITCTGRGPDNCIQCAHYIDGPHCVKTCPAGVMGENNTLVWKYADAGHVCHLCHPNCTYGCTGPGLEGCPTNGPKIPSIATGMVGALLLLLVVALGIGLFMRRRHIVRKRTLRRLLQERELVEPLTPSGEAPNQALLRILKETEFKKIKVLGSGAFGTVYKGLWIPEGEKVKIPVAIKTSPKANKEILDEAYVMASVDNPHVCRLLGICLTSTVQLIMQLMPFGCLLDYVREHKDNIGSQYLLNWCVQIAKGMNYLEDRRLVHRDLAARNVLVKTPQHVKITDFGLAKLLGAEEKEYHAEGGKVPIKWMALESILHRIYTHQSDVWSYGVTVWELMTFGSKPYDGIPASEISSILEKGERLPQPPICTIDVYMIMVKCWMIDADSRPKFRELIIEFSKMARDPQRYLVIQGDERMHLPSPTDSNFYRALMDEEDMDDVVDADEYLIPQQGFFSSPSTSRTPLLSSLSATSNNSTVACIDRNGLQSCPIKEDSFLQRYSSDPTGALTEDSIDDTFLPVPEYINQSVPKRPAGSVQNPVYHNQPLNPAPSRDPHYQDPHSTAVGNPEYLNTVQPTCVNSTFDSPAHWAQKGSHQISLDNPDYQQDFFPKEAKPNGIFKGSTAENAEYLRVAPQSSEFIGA

Take `COc1cc(N2CCC(N3CCCC3)CC2)c(C)cc1Nc1ncc(Cl)c(Nc2ccc3nccnc3c2NS(C)(=O)=O)n1` [Example A30, N-(6-((5-chloro-2-((2-methoxy-5-methyl-4-(4-(pyrrolidin-1-yl)piperidin-1-yl)phenyl)amino)pyrimidin-4-yl)amino)quinoxalin-5-yl)methanesulfonamide]: the GI50 in assay [1] was determined as 266 nM; in assay [2] it was 83 nM; in assay [3], 23 nM; in assay [4], 31 nM; in assay [5] it was 28 nM; in assay [6], 100 nM.
As for `COc1cc(N2CCC(N3CCOCC3)CC2)c(C)cc1Nc1ncc(Cl)c(Nc2ccc3nccnc3c2NS(C)(=O)=O)n1` [Example A31, N-(6-((5-chloro-2-((2-methoxy-5-methyl-4-(4-morpholinopiperidin-1-yl)phenyl)amino)pyrimidin-4-yl)amino)quinoxalin-5-yl)methanesulfonamide], the GI50 in assay [1] was determined as 223 nM; in assay [2], 79 nM; in assay [3] it was 43 nM; in assay [4], 39 nM; in assay [5], 50 nM; in assay [6] it was 131 nM.
With `CCCc1cc(Nc2ncc(F)c(Nc3ccc4nccnc4c3NS(C)(=O)=O)n2)c(OC)cc1N1CCC(N2CCN(C)CC2)CC1` [Example A32, N-(6-((5-fluoro-2-((2-methoxy-4-(4-(4-methylpiperazin-1-yl)piperidin-1-yl)-5-propylphenyl)amino)pyrimidin-4-yl)amino)quinoxalin-5-yl)methanesulfonamide], the GI50 in assay [1] amounted to 603 nM; in assay [2], 51 nM; in assay [3] it was 229 nM; in assay [4], 27 nM; in assay [5], 11 nM; in assay [6], 91 nM.
Regarding `CCc1cc(Nc2ncc(Br)c(Nc3ccc4nccnc4c3NS(C)(=O)=O)n2)c(OC)cc1N1CCC(N2CCCC2)CC1` [Example A33, N-(6-((5-bromo-2-((5-ethyl-2-methoxy-4-(4-(pyrrolidin-1-yl)piperidin-1-yl)phenyl)amino)pyrimidin-4-yl)amino)quinoxalin-5-yl)methanesulfonamide], the GI50 in assay [1] was more than 2000 nM; in assay [2], 57 nM; in assay [3] it was 18 nM; in assay [4], 8 nM; in assay [5], 4 nM; in assay [6], 6 nM.
On to `CCc1cc(Nc2ncc(Cl)c(Nc3ccc4nccnc4c3NS(C)(=O)=O)n2)c(OC)cc1N1CCC(N2CCCC2)CC1` [Example A34, N-(6-((5-chloro-2-((5-ethyl-2-methoxy-4-(4-(pyrrolidin-1-yl)piperidin-1-yl)phenyl)amino)pyrimidin-4-yl)amino)quinoxalin-5-yl)methanesulfonamide], for which the GI50 in assay [1] is more than 2000 nM; in assay [2] it was 16 nM; in assay [3] it was 13 nM; in assay [4], 5 nM; in assay [5], 1 nM; in assay [6], 4 nM.
As to `COc1cc(N2CC[C@H](N3CCN(C)CC3)[C@H](F)C2)ccc1Nc1ncc(Cl)c(Nc2ccc3nccnc3c2NS(C)(=O)=O)n1` [Example A35, N-(6-((5-chloro-2-((4-((3R,4S)-3-fluoro-4-(4-methylpiperazin-1-yl)piperidin-1-yl)-2-methoxyphenyl)amino)pyrimidin-4-yl)amino)quinoxalin-5-yl)methane sulfonamide], the GI50 in assay [1] stood at 576 nM; in assay [2], 335 nM; in assay [3], 659 nM; in assay [4], 219 nM; in assay [5], 145 nM; in assay [6] it was 272 nM.
With `COc1cc(N2CCN([C@@H]3CCN(C)C[C@@H]3F)CC2)ccc1Nc1ncc(Cl)c(Nc2ccc3nccnc3c2NS(C)(=O)=O)n1` [Example A36, N-(6-((5-chloro-2-((4-(4-((3S,4R)-3-fluoro-1-methylpiperidin-4-yl)piperazin-1-yl)-2-methoxyphenyl)amino)pyrimidin-4-yl)amino)quinoxalin-5-yl)methane sulfonamide], the GI50 in assay [1] amounted to 657 nM; in assay [2] it was 267 nM; in assay [3], 485 nM; in assay [4], 73 nM; in assay [5], 111 nM; in assay [6], 241 nM.
On to `COc1cc(N2CCC(N3CCN(CC(F)F)CC3)CC2)ccc1Nc1ncc(Cl)c(Nc2ccc3nccnc3c2NS(C)(=O)=O)n1` [Example A37, N-(6-((5-chloro-2-((4-(4-(4-(2,2-difluoroethyl)piperazin-1-yl)piperidin-1-yl)-2-methoxyphenyl)amino)pyrimidin-4-yl)amino)quinoxalin-5-yl)methane sulfonamide], for which the GI50 in assay [1] was determined as 734 nM; in assay [2] it was 451 nM; in assay [3], 640 nM; in assay [4] it was 174 nM; in assay [5], 126 nM; in assay [6], 205 nM.
`CCc1cc(Nc2ncc(Br)c(Nc3ccc4nccnc4c3N(C)S(C)(=O)=O)n2)c(OC)cc1N1CCC(N2CCOCC2)CC1` [Example A39, N-(6-((5-bromo-2-((5-ethyl-2-methoxy-4-(4-morpholinopiperidin-1-yl)phenyl)amino)pyrimidin-4-yl)amino)quinoxalin-5-yl)-N-methylmethanesulfonamide]: the GI50 in assay [1] came out at 779 nM; in assay [2], 61 nM; in assay [3] it was 35 nM; in assay [4], 4 nM; in assay [5] it was 8 nM; in assay [6], 8 nM.
As to `CCc1cc(Nc2ncc(Cl)c(Nc3ccc4nccnc4c3N(C)S(C)(=O)=O)n2)c(OC)cc1N1CCC(N2CCOCC2)CC1` [Example A40, N-(6-((5-chloro-2-((5-ethyl-2-methoxy-4-(4-morpholinopiperidin-1-yl)phenyl)amino)pyrimidin-4-yl)amino)quinoxalin-5-yl)-N-methylmethanesulfonamide], the GI50 in assay [1] worked out at 845 nM; in assay [2], 50 nM; in assay [3], 94 nM; in assay [4], 10 nM; in assay [5], 10 nM; in assay [6] it was 12 nM.
On to `CCCc1cc(Nc2ncc(Cl)c(Nc3ccc4nccnc4c3N(C)S(C)(=O)=O)n2)c(OC)cc1N1CCC(N2CCOCC2)CC1` [Example A41, N-(6-((5-chloro-2-((2-methoxy-4-(4-morpholinopiperidin-1-yl)-5-propylphenyl)amino)pyrimidin-4-yl)amino)quinoxalin-5-yl)-N-methylmethanesulfonamide], for which the GI50 is more than 2000 nM in assay [1]; 210 nM in assay [2]; 258 nM in assay [3]; 44 nM in assay [4]; 8 nM in assay [5]; 28 nM in assay [6].
With `CCCc1cc(Nc2ncc(Cl)c(Nc3ccc4nccnc4c3N(C)S(C)(=O)=O)n2)c(OC)cc1N1CCC(N2CCCC2)CC1` [Example A42, N-(6-((5-chloro-2-((2-methoxy-5-propyl-4-(4-(pyrrolidin-1-yl)piperidin-1-yl)phenyl)amino)pyrimidin-4-yl)amino)quinoxalin-5-yl)-N-methylmethanesulfonamide], the GI50 in assay [1] was found to be 1860 nM; in assay [2], 80 nM; in assay [3], 117 nM; in assay [4], 33 nM; in assay [5], 2 nM; in assay [6], 7 nM.
